“And” between values parts separate entries of the source, which are not always exact repeats. Identical values can stand only once. Like-named read-outs stand apart in the source and are kept apart here. Ends that are not written are not given here.
Assays:
d4T-treated rats = assay: d4T-induced mechanical hypersensitivity, paw withdrawal threshold; settings: administered at 10 mg
rats with TNI = settings: 10 mg/kg i.p.; evaluated at 1 h and 4 h
Experimental: Antinociceptive efficacy following acute and continuous systemic infusion. Test animals with tibial nerve injury (TNI)-induced neuropathic pain behavior (over 6 months) were administered to a single intraperitoneal injection or continual constant-rate infusion of polyarginine-conjugated CBD3A6K (ST2-106). Female Sprague-Dawley rats with TNI were administered a single injection of saline or 20 mg/kg of ST2-106.
Female Sprague-Dawley rats with TNI were infused with saline or ST2-106 over a 24 to 72 hour period using subcutaneously implanted Alzet® osmotic minipumps. […] Rats were used at 28 days after tibial nerve injury.
Paw-withdrawal thresholds (PWT in millinewtons, mN) were measured in naïve rats and rats subjected to spared nerve injury (i.e. tibial nerve ligation, TNI).
Paw-withdrawal thresholds (PWT in millinewtons, mN) were also measured in naïve rats and rats subjected to TNI when treated with compounds described herein or vehicle for extended periods.

ddC-injected rats = assay: ddC model of peripheral neuropathy, von Frey paw withdrawal threshold; assay type: in vivo, rat
[1] = system: adult Nf1+/- mice DRG neurons; assay: K+-stimulated release of iCGRP from Nf1+/- sensory neurons (RIA); assay type: cell-based, mouse
adult mouse DRG neurons = assay: K+-stimulated release of iCGRP from isolated sensory neurons (RIA); assay type: cell-based; settings: 10 μM peptide; for basal or resting release of iCGRP: 3.5 mM KCl
Experimental: EXAMPLE. Primary dorsal root ganglion (DRG) neuronal cultures. Isolation of sensory neurons from 1 to 2 month old wildtype C57BL/6J and Nf1^+/− C57BL/6J littermates (34) was performed exactly as described previously (11,35,36) while DRGs from adult rats were prepared as per Brittain and colleagues (11). All animals were housed, bred, and had free access to food and water in the Indiana University Laboratory Animal Research Center and used in procedures approved by the Animal Use and Care Committee of the Indiana University School of Medicine. All animals were genotyped prior to use in experiments.
EXAMPLE. Stimulated-release of iCGRP. Measurement of stimulus-evoked release and content of immunoreactive CGRP (iCGRP) from isolated sensory neurons was accomplished as previously published (11,33,35). After 5-7 days in culture, media was removed and the basal or resting release of iCGRP was measured from cells incubated for 10 minutes in HEPES buffer consisting of (in mM): 25 HEPES, 135 NaCl, 3.5 KCl, 2.5 CaCl2, 1 MgCl2, 3.3 dextrose, and 0.1% (w/v) bovine serum albumin, pH 7.4, and maintained at 37° C. […] The amount of iCGRP released in each incubation was measured by a radioimmunoas say (RIA). The minimum amount of iCGRP detected by the RIA is 5 fmol with a 95% confidence interval (37). After the release protocol, the remaining peptide content in each well was determined by exposing the cells to 2 N acetic acid for 10 minutes. Aliquots of acid solution were diluted in HEPES and iCGRP levels were determined by RIA. The release of iCGRP during the 10 min incubation period is expressed as percent of the total content. […]
EXAMPLE. […] The KCl-stimulated release of CGRP was measured from sensory neurons exposed to TAT-control, TAT-L1 or TAT-Ct-dis peptides, at 10 μM (a concentration at which Ca^2+ influx was largely unaffected by both peptides), included in the 10 minutes prior to and throughout the high K^+ exposures (total peptide exposure of 30 min). […]

naïve rodents = settings: in vivo, ip
[2] = cell permeability; Wender et al.; cited from earlier work
[3] = system: R-type (CaV2.3) Ca2+ currents; assay: R-type Ca2+ current recording in sensory neurons; assay type: cell-based
[4] = system: lumbar 4-5 DRG neurons from d4T-treated rats; assay: Current clamp recording of action potential firing; assay type: cell-based, rat; settings: 10 μM
Experimental: EXAMPLE. […] Current clamp recordings were performed on small-to-medium (>30 μm->40 μm) diameter lumbar 4-5 DRG neurons from d4T-treated rats. Firing of 4-6 action potentials (APs) was elicited by a 1 second depolarizing current injection (ranging from 0.1 to 0.4 nA depending on the cell) every 30 seconds.

[5] = target: interaction between CaV2.2 and CRMP2 (Rattus norvegicus, UniProt P47942); assay: Immunoprecipitation with CaV2.2 antibody from rat dorsal root ganglia lysate, CRMP2 immunoblot; assay type: biochemical; settings: 10 μM peptide added for 30 min; rat DRG
adult rat DRG neurons = assay: Fura-2 calcium imaging of K+-stimulated Ca2+ influx; assay type: cell-based

YGRKKRRQRRRARSRLKELRGVPRGL [ST1-105]
effect on healthy animals (pre-d4T) (d4T-treated rats): Neither TAT-CBD3 nor TAT-CBD3A6K administered at 10 mg showed an effect

RRRRRRRRRARSRLAELRGVPRGL [ST2-104]
nerve-injury induced nociception (PWT) (rats with TNI): reverses nerve-injury induced nociception

YGRKKRRQRRR-NSSFPSIHCSSSWSEE [TAT-Ct-dis]
peptide-induced reversal of hypersensitivity (ddC-injected rats; 4 mg/kg i.p., two hours after injection): diminished to pre-peptide levels | reversal of tactile hypersensitivity (PWT) (ddC-injected rats; ~4 mg/kg i.p., 1 h after injection, seven days after ddC): Almost complete reversal of tactile hypersensitivity | less iCGRP release compared to TAT-control [1]: ~70% | less iCGRP release compared to TAT-control (adult mouse DRG neurons; 50 mM KCl): ~70%

ARSRLAELRGVPRGL (listed as Homo sapiens) [CBD3, short peptide derived from CRMP2]
less iCGRP release compared to TAT-control ([1]; Nf1+/- neurons, 50 mM KCl, 10 μM peptide): ~78%

RRRRRRRRRARSRLKELRGVPRGL [ST2-106]
PWT in naïve animals (naïve rodents): unaffected

YGRKKRRQRRR-YLEWIFKAEEVMLAE (YGRKKRRQRRRYLEWIFKAEEVMLAE) [TAT-L1]
basal or resting release of iCGRP (adult mouse DRG neurons): 1.04±0.09 % total peptide content/10 min

R9: oligoarginine (SEQ ID NO: 1) (RRRRRRRRR)
greater penetration than TAT [2]: 100 fold

YGRKKRRQRRRARSRLAELLGVPRGL [ST1-106]
R-type calcium current density [3]: showed a significant decrease over control | number of elicited action potentials [4]: reduces the number of elicited action potentials

YGRKKRRQRRRARSRLAELRGVPRGL [ST1-104]
effect on healthy animals (pre-d4T) (d4T-treated rats): Neither TAT-CBD3 nor TAT-CBD3A6K administered at 10 mg showed an effect

NSSFPSIHCSSWSEE [Ct-dis]
amount of CRMP2 captured with CaV2.2 antibody [5]: reduced the amount of CRMP2 that could be captured | peptide-mediated inhibition of [Ca2+]c influx, Ct-dis versus L1 (adult rat DRG neurons; 30 μM): much more pronounced | K+-stimulated [Ca2+]c influx (adult rat DRG neurons; 20 min incubation, 3 μM and 30 μM (FIG. 1), 46.5 mM KCl): concentration-dependent decrease

YGRKKRRQRRR-WEAKEMLYFEALVIE (YGRKKRRQRRRWEAKEMLYFEALVIE) [TAT-control, reference compound]
increase in iCGRP release over basal [1]: 8 to 10 fold | basal or resting release of iCGRP (adult mouse DRG neurons): 1.58±0.17 % total peptide content/10 min and 0.92±0.09 % total peptide content/10 min

From patent US9782491B2, “Peptide conjugates for treating pain” (priority 2012, dated 2017)
